Data from patent US12649722B2, “Herbicidal cinnoline derivatives” (SYNGENTA CROP PROTECTION AG, priority 2020, dated 2026).

Legend:
Assay type in all cases: in vivo
ZEAMX [1] = experiment: Post-emergence Test, ZEAMX; conditions: sprayed after 8 days cultivation, 1000 g/ha, evaluated after 13 days
ZEAMX [2] = experiment: Pre-emergence Test, ZEAMX; conditions: 1000 g/ha, evaluated after 13 days
[3] = tested on: Amaranthus retoflexus (AMARE); experiment: Pre-emergence Test, AMARE; conditions: 1000 g/ha, evaluated after 13 days
[4] = tested on: Ipornoea hederacea (IPOHE); experiment: Pre-emergence Test, IPOHE; conditions: 1000 g/ha, evaluated after 13 days
[5] = tested on: Echinochloa crus-galli (ECHCG); experiment: Pre-emergence Test, ECHCG; conditions: 1000 g/ha, evaluated after 13 days
Setaria faberi (SETFA) [6] = experiment: Post-emergence Test, SETFA; conditions: sprayed after 8 days cultivation, 1000 g/ha, evaluated after 13 days
How it was run: (§1)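 Pots sown with AMARE, SOLNI, SETFA, LOLPE, ECHCG, IPOHE, kept in glasshouse (24/16 °C, 14 h light, 65% humidity), sprayed at 1000 g/ha unless stated, in acetone/water 50:50 with 0.5% Tween 20. Damage scored after 13 days on a 0–5 scale (5=81–100%, 0=0%).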

[7] = tested on: Amaranthus retoflexus (AMARE); experiment: Post-emergence Test, AMARE; conditions: sprayed after 8 days cultivation, 1000 g/ha, evaluated after 13 days
How it was run: as §1

ABUTH [8] = experiment: Pre-emergence Test, ABUTH; conditions: 1000 g/ha, evaluated after 13 days
[9] = tested on: Ipornoea hederacea (IPOHE); experiment: Post-emergence Test, IPOHE; conditions: sprayed after 8 days cultivation, 1000 g/ha, evaluated after 13 days
How it was run: as §1

[10] = tested on: Echinochloa crus-galli (ECHCG); experiment: Post-emergence Test, ECHCG; conditions: sprayed after 8 days cultivation, 1000 g/ha, evaluated after 13 days
How it was run: as §1

Setaria faberi (SETFA) [11] = experiment: Pre-emergence Test, SETFA; conditions: 1000 g/ha, evaluated after 13 days
ABUTH [12] = experiment: Post-emergence Test, ABUTH; conditions: sprayed after 8 days cultivation, 1000 g/ha, evaluated after 13 days

| Compound | percentage damage caused to the plant, ZEAMX (ZEAMX [1]) | percentage damage caused to the plant, ZEAMX (ZEAMX [2]) | percentage damage caused to the plant, AMARE [3] | percentage damage caused to the plant, IPOHE [4] | percentage damage caused to the plant, ECHCG [5] | percentage damage caused to the plant, SETFA (Setaria faberi (SETFA) [6]) | percentage damage caused to the plant, AMARE [7] | percentage damage caused to the plant, ABUTH (ABUTH [8]) | percentage damage caused to the plant, IPOHE [9] | percentage damage caused to the plant, ECHCG [10] | percentage damage caused to the plant, SETFA (Setaria faberi (SETFA) [11]) | percentage damage caused to the plant, ABUTH (ABUTH [12]) |
| --- | --- | --- | --- | --- | --- | --- | --- | --- | --- | --- | --- | --- |
| CCOC(=O)c1nn(-c2ccc(OC(F)(F)F)cc2)c2cccc(-n3ncc(C(F)(F)F)n3)c2c1=O [Compound P34, ethyl 4-oxo-1-[4-(trifluoromethoxy)phenyl]-5-[4-(trifluoromethyl)triazol-2-yl]cinnoline-3-carboxylate] | 0 (0=0%) | 2 (2=21-40%) | 0 (0=0%) | 0 (0=0%) | 0 (0=0%) | 0 (0=0%) | 0 (0=0%) | 0 (0=0%) | 0 (0=0%) | 0 (0=0%) | 0 (0=0%) | 0 (0=0%) |
| O=C(O)c1nn(-c2ccc(OC(F)(F)F)cc2)c2cccc(N3CCOCC3)c2c1=O [Compound P25, 5-morpholino-4-oxo-1-[4-(trifluoromethoxy)phenyl] cinnoline-3-carboxylic acid] | 0 (0=0%) | 0 (0=0%) | 0 (0=0%) | 0 (0=0%) | 0 (0=0%) | 0 (0=0%) | 0 (0=0%) | 0 (0=0%) | 0 (0=0%) | 0 (0=0%) | 0 (0=0%) | 0 (0=0%) |
| CCOC(=O)c1nn(-c2ccc(OC(F)(F)F)cc2)c2cccc(-n3cc(C(F)(F)F)nn3)c2c1=O [Compound P33, ethyl 4-oxo-1-[4-(trifluoromethoxy)phenyl]-5-[4-(trifluoromethyl)triazol-1-yl]cinnoline-3-carboxylate] | 0 (0=0%) | 1 (1=10-20%) | 0 (0=0%) | 0 (0=0%) | 0 (0=0%) | 0 (0=0%) | 0 (0=0%) | 0 (0=0%) | 0 (0=0%) | 0 (0=0%) | 0 (0=0%) | 0 (0=0%) |
| CCOC(=O)c1nn(-c2ccc(OC(F)(F)F)cc2)c2cccc(CC=O)c2c1=O [Compound P18, ethyl 4-oxo-5-(2-oxoethyl)-1-[4-(trifluoromethoxy)phenyl] cinnoline-3-carboxylate] | 1 (1=10-20%) | 0 (0=0%) | 0 (0=0%) | 0 (0=0%) | 0 (0=0%) | 1 (1=10-20%) | 0 (0=0%) | 0 (0=0%) | 1 (1=10-20%) | 1 (1=10-20%) | 1 (1=10-20%) | 1 (1=10-20%) |
